Laboratory results as given in patent US10213397B2, “Microtubule polymerization modulators for treating LMNA-related dilated cardiomyopathy” (priority 2016, dated 2019).
“Also recorded” adds a separate entry of the source.

Assays:
[1] = system: patient diagnosed with LMNA-related DCM; test: Treatment of patient diagnosed with LMNA-related dilated cardiomyopathy (case report); format: in vivo, human; details: for patient's condition: carvedilol 25 mg twice daily with eplerenone 25 mg once daily, before colchicine
Excerpt: In August of 2013 patient […] was diagnosed with LMNA-related DCM, also known as “cardiac laminopathy,” an inherited degenerative cardiac disorder characterized by left ventricular dilation, arrhythmia, and cardiac enlargement. It is a subset of “non-ischemic cardiomyopathy.”
The patient worked as a college professor and the patient's condition worsened throughout the 2013-14 school year. The patient was heading toward long-term disability due to fatigue, shortness of breath and palpitations, all due to their progressive heart failure. In October, an implantable defibrillator was placed in the patient's chest, and the patient was hospitalized twice for cardiac arrhythmias (i.e., once for excessive premature ventricular contractions or TVCs′, and once for cardiac resynchronization for atrial fibrillation). Because conventional heart failure therapy appeared unsuccessful at ameliorating disease effects, the patient undertook a comprehensive review of literature on laminopathy to find a novel treatment.
In June 2014, the patient began experiencing PVC-burden cardiomyopathy, a secondary myopathy caused by a heavy premature ventricular contraction (PVC) load. Their PVCs were measured at 52,000 over a 48-hour holter-monitor. Given their deteriorating condition, now with NYHA class III heart failure, they sought care at Northwestern University's Bluhm Cardiovascular Institute in Chicago with Dr. Jane Wilcox.
Dr. Wilcox adjusted the patient's existing medication regimen to reflect best practice for treating dilated cardiomyopathy. The patient began taking 25 mg twice daily of carvedilol, as well as 25 mg once daily of eplerenone.
In January 2015, the patient underwent an unsuccessful procedure to ablate cardiac tissue causing their PVC burden. Their heart ejection fraction (EF), previously measured at 55%, was now measured at 45%. Later that month, the patient was hospitalized for Sotalol (antiarrhythmic drug) initiation. Sotalol was also unsuccessful in treating the patient's PVCs.
The patient had been very symptomatic with PVC's and could tell when his they were having PVC's.
Further, the patient was now considered to have NYHA class I heart failure symptoms and able to resume all previous activities, including running and biking, whereas previously the patient was NYHA class III (i.e., heart failure symptoms with mild activity).
As of July 2016, the patient stopped taking Sotalol because it seemed superfluous in respect to the patient's carvedilol regimen, and the patient has continued to be NYHA class I (i.e. asymptomatic).

[2] = system: familial Mediterranean fever (FMF); details: long-term use; reference 3; cited from earlier work
[3] = system: LMNA cells; details: laboratory studies, reference 4 (Larrieu et al.); cited from earlier work
[4] = cited from earlier work

Compound: CC(C)NCC(O)c1ccc(NS(C)(=O)=O)cc1 (stereo not drawn) [Sotalol]
- treatment of the patient's PVCs ([1]; January 2015, before colchicine): unsuccessful

Compound: COc1ccccc1OCCNCC(O)COc1cccc2[nH]c3ccccc3c12 (stereo not drawn) [carvedilol]
- patient's condition [1]: continued to deteriorate

Compound: COc1cc2c(c(OC)c1OC)-c1ccc(OC)c(=O)cc1[C@@H](NC(C)=O)CC2 [colchicine]
- treatment of FMF (preventing attacks, reduction of symptoms, prevention and treatment of amyloidosis) [2]: very effective
- nuclear shape defects characteristic of LMNA cells [3]: rescue nuclear shape defects
- negative side effects ([1]; 1.8 mg colchicine twice daily (3.6 mg total dose), monitored for myelosuppression): no negative side effects; also recorded: has not experienced negative side effects
- NYHA class of heart failure symptoms ([1]; August 2015, previously NYHA class III): NYHA class I
- improvement in cardiac output, measured non-invasively using LVOT velocity time integral (VTI) ([1]; August 2015 echocardiogram, colchicine started early 2015): 20%
- ventricular remodeling (left ventricular size and volume) ([1]; February 2016 echocardiogram): positive ventricular remodeling
- cardiac output (LVOT) ([1]; February 2016 echocardiogram, LVOT initially was 15): 22
- ejection fraction ([1]; February 2016 echocardiogram, improvement from 40-45%): 55%
- NYHA class of heart failure symptoms ([1]; as of July 2016, after stopping eplerenone and Sotalol): NYHA class I
- general condition / overall health of the patient ([1]; on colchicine, at higher doses than typically used for gout): dramatic recovery; also recorded: continued to improve
- PVC volume ([1]; within 48 hours of colchicine administration, patient with LMNA-related DCM): diminished considerably
- toxicity with P-gp or strong CYP3A4 inhibitors ([4]; patients with renal or hepatic impairment, colchicine taken in therapeutic doses): life-threatening and fatal colchicine toxicity
- frequency of agranulocytosis, thrombocytopenia, aplastic anemia, leukopenia, granulocytopenia, pancytopenia (hematologic, rare) ([4]; reported adverse reactions): less than 0.1%
- frequency of alopecia (dermatologic, rare) ([4]; reported adverse reactions): less than 0.1%
- frequency of azoospermia, oligospermia (genitourinary, rare) ([4]; reported adverse reactions): less than 0.1%
- frequency of myopathy, rhabdomyolysis, elevated CPK, myotonia, muscle weakness, muscle pain (musculoskeletal, rare) ([4]; reported adverse reactions): less than 0.1%
- frequency of pharyngolaryngeal pain (respiratory, common) ([4]; reported adverse reactions): 3%

Compound: COC(=O)[C@@H]1CC2=CC(=O)CC[C@]2(C)[C@@]23O[C@@H]2C[C@@]2(C)[C@@H](CC[C@@]24CCC(=O)O4)[C@H]13 [eplerenone]
- reason for ceasing drug (potassium levels) ([1]; March 2016): elevated potassium levels
- patient's condition [1]: continued to deteriorate
